Experimental data taken from patent publication US4971967A, “Quinolinecarboxylic acid derivatives, antibacterial compositions and use” (Kanebo Ltd, priority 1989, dated 1990).
Values after ≈ are worked out from the molar mass of the structure shown. Read-outs that look alike come from different tables or passages of the source.

Tests used:
[1] = system: Micrococcus luteus ATCC 9341; experiment: Antibacterial activity (MIC), Micrococcus luteus ATCC 9341; assay type: cell-based; settings: ATCC9341; Micrococcus luteus ATCC 9341, Gram +; read-out: Minimum inhibitory concentration (MIC)
Outline: (§1)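 Read-out is the MIC, obtained by the standard Japan Society of Chemotherapy method from 1000 μg/ml standard solutions made in sterile water.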

[2] = system: Pseudomonas aeruginosa E-2; experiment: Antibacterial activity (MIC), P. aeruginosa E-2; assay type: cell-based; settings: E2; Pseudomonas aeruginosa E-2, Gram -; read-out: Minimum inhibitory concentration (MIC)
Outline: as §1

[3] = system: Staphylococcus aureus IID 803; experiment: Effect on treatment of general infectious disease, S. aureus IID 803 (Experiment 3); assay type: in vivo, ddY male mice infected with Staphylococcus aureus; settings: IID803, 168 h, oral, 1 h after i.p. infection, 5.0×10^7 CFU/mouse, survival after one week
Protocol: Staphylococcus aureus IID 803 (5.0×10^7 CFU/mouse)
(§2) The test microorganisms were subjected to standing culture in Trypto-Soya Agar "Nissui" (made by Nissui Seiyaku K.K., Japan) at 37° C. for 16 to 18 hours. The culture was then diluted with PBS (Dulbecco's phosphate buffered saline) and mixed with an equivalent amount of 10% (w/v) Mucin (BACTO MUCIN BACTERIOLOGICAL, made by Difco Co.) to prepare a microorganism solution. The thus prepared microorganism solution (0.5 ml each) was intraperitoneally inoculated to ddY male mice (5 weeks age, weighing 25-28 g, 5 mice in each group), to infect the animals. One hour after the infection, the compound (A) or (J) of the present invention or the known compound (X) suspended in 1% (w/v) aqueous gum arabic or the known compound (Y) dissolved in sterilized distilled water was orally adiministered to mice.
(§3) The mice were daily observed for one week, and from the survival number of mice after one week, the 50% effective dose (ED50) was calculated by Weil method.

[4] = system: Klebsiella pneumoniae PCI-602; experiment: Antibacterial activity (MIC), Klebsiella pneumoniae PCI-602; assay type: cell-based; settings: PCI602; Klebsiella pneumoniae PCI-602, Gram -; read-out: Minimum inhibitory concentration (MIC)
Outline: as §1

[5] = system: Escherichia coli NIHJ JC-2; experiment: Antibacterial activity (MIC), E. coli NIHJ JC-2; assay type: cell-based; settings: NIHJJC2; Escherichia coli NIHJ JC-2, Gram -; read-out: Minimum inhibitory concentration (MIC)
Outline: as §1

[6] = system: Staphylococcus aureus IID 803; experiment: Antibacterial activity (MIC), S. aureus IID 803; assay type: cell-based
Outline: as §1

[7] = system: Pseudomonas aeruginosa E-2; experiment: Effect on treatment of general infectious disease, P. aeruginosa E-2 (Experiment 3); assay type: in vivo, ddY male mice infected with Pseudomonas aeruginosa; settings: E2, 168 h, oral, 1 h after i.p. infection, 3.1×10^4 CFU/mouse, survival after one week
Protocol: Pseudomonas aeruginosa E-2 (3.1×10^4 CFU/mouse)
as §2, §3

[8] = system: Staphylococcus aureus FDA 209P JC-1; experiment: Antibacterial activity (MIC), S. aureus FDA 209P JC-1; assay type: cell-based; settings: FDA209P, read-out: Minimum inhibitory concentration (MIC)
Outline: as §1

[9] = system: Proteus mirabilis IFO 3849; experiment: Antibacterial activity (MIC), Proteus mirabilis IFO 3849; assay type: cell-based; settings: IFO3849; Proteus mirabilis IFO 3849, Gram -; read-out: Minimum inhibitory concentration (MIC)
Outline: as §1

[10] = system: clinically isolated methicillin resistant Staphylococcus aureus; experiment: MIC against clinically isolated methicillin resistant Staphylococcus aureus; assay type: cell-based; settings: 54 strains; for MIC50: minimum concentration for inhibiting growth of the strains by 50%; for MIC90: minimum concentration for inhibiting growth of the strains by 90%
Protocol: The compounds (A) and (J) of the present invention and the known compound (X) were dissolved in 0.1 N aqueous sodium hydroxide, and the known compound (Y) in sterilized distilled water, to prepare a solution of 5000 μg/ml in concentration each. The above solutions were then diluted with sterilized distilled water to prepare a standard solution with a concentration of the test compound: 1000 μg/ml each. The test was carried out by a method appointed by Japan Society of Chemotherapy (ibidem) to measure minimum inhibitory concentration (MIC) against 54 strains of clinically isolated methicillin resistant Staphylococcus aureus, from which there were calculated a range of MIC (MICrange) of the test compound against these resistant strains, a minimum concentration for inhibiting the growth of the strains by 50% (MIC50) and a minimum concentration for inhibiting the growth of the strains by 90% (MIC90).

Shigella sonnei EW-33 = experiment: Antibacterial activity (MIC), Shigella sonnei EW-33; assay type: cell-based; settings: Shigella sonnei, EW33, Shigella sonnei EW-33, Gram -; read-out: Minimum inhibitory concentration (MIC)
Outline: as §1

[11] = system: Enterobacter aerogenes ATCC 13048; experiment: Antibacterial activity (MIC), Enterobacter aerogenes ATCC 13048; assay type: cell-based; settings: Klebsiella aerogenes, ATCC13048; Enterobacter aerogenes ATCC 13048, Gram -; read-out: Minimum inhibitory concentration (MIC)
Outline: as §1

[12] = system: Staphylococcus epidermidis IAM-1296; experiment: Antibacterial activity (MIC), S. epidermidis IAM-1296; assay type: cell-based; settings: Staphylococcus epidermidis, IAM1296, Staphylococcus epidermidis IAM-1296, Gram +; read-out: Minimum inhibitory concentration (MIC)
Outline: as §1

[13] = Acute toxicity (Experiment 5); settings: mouse, in vivo, po, 2000 mg/kg
Protocol: The compound (A) or (J) of the present invention was suspended in 1% (w/v) aqueous gum arabic to prepare a suspension in concentration of 100 mg/ml. The suspension was orally administered to ddY male mice (5 weeks age, weighing 20 to 25 g, 5 mice in each group), which had been fasted for 18 hours, at a rate of 2000 mg/kg body weight of the compound (A) or (J).

[14] = system: Pseudomonas aeruginosa IFO 3445; experiment: Antibacterial activity (MIC), P. aeruginosa IFO 3445; assay type: cell-based; settings: Pseudomonas aeruginosa, IFO3445, Pseudomonas aeruginosa IFO 3445, Gram -; read-out: Minimum inhibitory concentration (MIC)
Outline: as §1

[15] = system: Bacillus subtilis ATCC 6633; experiment: Antibacterial activity (MIC), Bacillus subtilis ATCC 6633; assay type: cell-based
Outline: as §1

[16] = system: Morganella morganii IFO 3848; experiment: Antibacterial activity (MIC), Morganella morganii IFO 3848; assay type: cell-based; settings: Morganella morganii, IFO3848, Morganella morganii IFO 3848, Gram -; read-out: Minimum inhibitory concentration (MIC)
Outline: as §1

Enterobacter cloacae 963 = experiment: Antibacterial activity (MIC), Enterobacter cloacae 963; assay type: cell-based; settings: Enterobacter cloacae, 963, Enterobacter cloacae 963, Gram -; read-out: Minimum inhibitory concentration (MIC)
Outline: as §1

| SMILES | MIC [1] [µg/mL] | MIC [2] [µg/mL] | ED50 [3] [mg/kg] | MIC [4] [µg/mL] | MIC [5] [µg/mL] | ED50 [7] [mg/kg] | MIC [9] [µg/mL] | MIC [10] [µg/mL] | MIC50 [10] [µg/mL] | MIC90 [10] [µg/mL] | MIC (Shigella sonnei EW-33) [µg/mL] | MIC [11] [µg/mL] | MIC [12] [µg/mL] | death of mice [13] | MIC [14] [µg/mL] | MIC [16] [µg/mL] | MIC (Enterobacter cloacae 963) [µg/mL] | further results |
| --- | --- | --- | --- | --- | --- | --- | --- | --- | --- | --- | --- | --- | --- | --- | --- | --- | --- | --- |
| CCN1CCN(c2c(F)cc3c(=O)c(C(=O)O)c4scc5n4c3c2N(C)C5)CC1 [Compound (J), 9,1-(Methylimino)methano-7-fluoro-8-(4-ethyl-1-piperazinyl)-5-oxo-5H-thiazolo[3,2-a]quinoline-4-carboxylic acid] | 0.39 (≈ 0.936 µM) | 0.78 (≈ 1.87 µM) | 5.8 | 0.006 (≈ 0.0144 µM) | 0.1 (≈ 0.24 µM) | 6.8 | 0.39 (≈ 0.936 µM) | 0.025 to 0.1 (≈ 0.06 to 0.24 µM) | 0.05 (≈ 0.12 µM) | 0.1 (≈ 0.24 µM) | 0.05 (≈ 0.12 µM) | 0.1 (≈ 0.24 µM) | 0.1 (≈ 0.24 µM) | no death of mice was observed | 0.78 (≈ 1.87 µM) | 0.1 (≈ 0.24 µM) | 0.1 (≈ 0.24 µM) | MIC ([6]; Staphylococcus aureus, IID803, read-out: Minimum inhibitory concentration (MIC)): 0.05 µg/mL (≈ 0.12 µM); MIC ([8]; Staphylococcus aureus): 0.05 µg/mL (≈ 0.12 µM); MIC ([15]; Bacillus subtilis, ATCC6633, Bacillus subtilis ATCC 6633, Gram +, read-out: Minimum inhibitory concentration (MIC)): 0.025 µg/mL (≈ 0.06 µM) |
| CN1CCN(c2c(F)cc3c(=O)c(C(=O)O)c4scc5n4c3c2N(C)C5)CC1 [Compound (A), 9,1-(Methylimino)methano-7-fluoro-8-(4-methyl-1-piperazinyl)-5-oxo-5H-thiazolo[3,2-a]quinoline-4-carboxylic acid] | 0.39 (≈ 0.969 µM) | 0.78 (≈ 1.94 µM) | 5.8 | 0.006 (≈ 0.0149 µM) | 0.05 (≈ 0.124 µM) | 10.2 | 0.2 (≈ 0.497 µM) | 0.025 to 0.1 (≈ 0.0621 to 0.248 µM) | 0.05 (≈ 0.124 µM) | 0.1 (≈ 0.248 µM) | 0.025 (≈ 0.0621 µM) | 0.05 (≈ 0.124 µM) | 0.05 (≈ 0.124 µM) | no death of mice was observed | 0.39 (≈ 0.969 µM) | 0.05 (≈ 0.124 µM) | 0.05 (≈ 0.124 µM) | MIC ([6]; IID803, Staphylococcus aureus IID 803, Gram +, read-out: Minimum inhibitory concentration (MIC)): 0.05 µg/mL (≈ 0.124 µM); MIC ([8]; Staphylococcus aureus FDA 209P JC-1, Gram +): 0.05 µg/mL (≈ 0.124 µM); Minimum inhibitory concentration (MIC) ([15]; Bacillus subtilis ATCC 6633, Gram +): 0.006 µg/mL |
